{"source": "ChEMBL document CHEMBL1157539", "about": "“Thousands of chemical starting points for antimalarial lead identification” (Nature, 2010)", "data": [{"test_system": "Plasmodium falciparum", "assay": "GSK_TCMDC: Inhibition of Plasmodium falciparum 3D7 in whole erythrocytes, using parasite LDH activity as an index of growth.", "assay_type": "functional, organism-based", "conditions": "Plasmodium falciparum, 3D7", "units": {"XC50": "nM"}, "values": [{"compound": "COc1ccc2c(c1)[nH]c1c(/C=C/c3ccc([N+](=O)[O-])cc3)nccc12", "XC50": 858}, {"compound": "COc1ccccc1CNCC(O)c1cc(C(F)(F)F)ccc1C(F)(F)F", "note": "(stereo not drawn)", "XC50": 944}, {"compound": "CCN(CC)CCN(Cc1ccc(-c2ccc(C(F)(F)F)cc2)cc1)C(=O)Cn1c(CCC2CCCCC2)nc(=O)c2ccccc21", "XC50": 1390}, {"compound": "CCN1CCC(N(Cc2ccc(-c3ccc(C(F)(F)F)cc3)cc2)C(=O)Cn2c(CCc3cccc(F)c3F)nc(=O)c3ccccc32)CC1", "XC50": 1060}, {"compound": "CCN(CC)CCN(Cc1ccc(-c2ccc(C(F)(F)F)cc2)cc1)C(=O)Cn1c(CCc2cccc(F)c2F)nc(=O)c2sccc21", "XC50": 905}, {"compound": "Cc1nc(N)nc(N)c1-c1ccc(Cl)cc1", "XC50": 767}, {"compound": "CC1CN(c2ccc(C(=O)NCC3CC3)cc2NC(=O)OCc2ccccc2)CC(C)O1", "note": "(stereo not drawn)", "XC50": 1300}, {"compound": "CCCCN(CCCC)Cc1cc(Nc2ccnc3cc(Cl)ccc23)ccc1O", "XC50": 17.2}, {"compound": "COc1cc(Nc2ccc3cc(S(=O)(=O)N4CCCCC4C)ccc3n2)cc(OC)c1OC", "note": "(stereo not drawn)", "XC50": 1240}, {"compound": "COc1ccc(NC(=O)Nc2cccc(-c3cccc(-c4nc5cccc(C)c5[nH]4)c3)c2)cc1", "XC50": 400}, {"compound": "COc1ccc(CCCON2C(=N)N=C(N)NC2(C)C)cc1", "XC50": 3.2}, {"compound": "CN1CCN(CCCN(Cc2csc(-c3ccc(CNCc4ccccc4)cc3)n2)S(=O)(=O)c2ccccc2)CC1", "XC50": 773}, {"compound": "CC(=O)N[C@H](C(=O)Nc1cccc(-c2ccc(-c3nc4cccc(C)c4[nH]3)s2)c1)C(C)C", "XC50": 760}, {"compound": "O=C(Nc1cccc(CN2CCCN(Cc3ncc[nH]3)CC2)c1)c1ccc(-c2ccccc2)cc1", "XC50": 654}, {"compound": "CC(Nc1ccc2c(c1)CCC2)C(=O)Nc1cc(C(F)(F)F)ccc1N1CCOCC1", "note": "(stereo not drawn)", "XC50": 85.3}, {"compound": "CC(C)(CN)c1nc(-c2ccc(Cl)c(O)c2)c(-c2ccnc(N)n2)[nH]1", "XC50": 981}, {"compound": "CC1CCCC(C)N1C[C@@H](O)CNS(=O)(=O)c1cccc(C(F)(F)F)c1", "note": "(stereo partly drawn)", "XC50": 692}, {"compound": "Cc1cc(NC(=O)c2ccco2)ccc1OC1CCN(Cc2ccc(F)cc2)C1", "note": "(stereo not drawn)", "XC50": 644}, {"compound": "CCCN(CC1CC1)c1ncc(-c2cccc(CNCc3ccccc3O)c2)cn1", "XC50": 700}, {"compound": "CS(=O)(=O)c1cccc(-c2cnc(N)c3cc(-c4ccc5c(c4)OCO5)ccc23)c1", "XC50": 1040}, {"compound": "CC(C)(C(=O)Nc1ccc(N2CCC3(CCCN(CC4CC4)C3)CC2)c(Cl)c1)c1cccc(C(F)(F)F)c1", "XC50": 2000}, {"compound": "CC(C)Cn1c(Sc2ccc(C#N)c([N+](=O)[O-])c2)nnc1-c1ccc(N(C)C)cc1", "XC50": 220}, {"compound": "Cc1ccc(Cc2c[nH]c(NCCSCc3ccc(CN4CCOCC4)o3)nc2=O)cn1", "XC50": 1070}, {"compound": "CCN1CCC(NCc2ccc(-c3ccc(Cl)cc3)cc2)CC1", "XC50": 1020}, {"compound": "COc1ccc2cc(-c3nc(-c4c(Cl)cccc4Cl)[nH]c3-c3ccnc(NCCC4CCCN4C)c3)ccc2c1", "note": "(stereo not drawn)", "XC50": 1030}, {"compound": "COc1ccc(-c2cc3ncn(CC(=O)N4CCN(c5cccc(OC)c5)CC4)c(=O)c3s2)cc1", "XC50": 1060}, {"compound": "CC(C)(CNC(=O)/C=C/c1ccc(Cl)c(Cl)c1)CNc1cc(=O)c2ccccc2[nH]1", "XC50": 856}, {"compound": "COc1ccc2nccc([C@@H](O)CN3C4CCC3CC(NCc3ccc5c(n3)NC(=O)CS5)C4)c2n1", "note": "(stereo partly drawn)", "XC50": 934}, {"compound": "CC(CN(C)C)C(=O)Nc1cccc(-c2ccc(-c3nc4ccccc4[nH]3)cc2)c1", "note": "(stereo not drawn)", "XC50": 706}, {"compound": "CCOc1ccccc1CCNCC1CCN(CC2CCCCC2)CC1", "XC50": 783}, {"compound": "O=C(NC1CC1)c1cnc(N2CCN(Cc3c(F)cccc3Cl)CC2)c(Cl)c1", "XC50": 905}, {"compound": "CC(C)(C)c1ccc(CN2CCC(NC(=O)c3ccc(-c4cccc(C(F)(F)F)c4)s3)CC2)cc1", "XC50": 359}, {"compound": "NC1=NC(CCc2ccccc2)N(c2ccccc2)C(N)=N1", "note": "(stereo not drawn)", "XC50": 77.1}, {"compound": "O=c1cc(NCCCNC(c2ccccc2)c2ccc(Cl)c(Cl)c2)[nH]c2ccccc12", "note": "(stereo not drawn)", "XC50": 1140}, {"compound": "Cc1cccc2nc(-c3ccc(-c4cccc(CNCCCN5CCCC5=O)c4)s3)[nH]c12", "XC50": 590}, {"compound": "CCCCCCN1CCCN(Cc2ccc(C(=O)Nc3cccc(CC)c3)cc2)CC1", "XC50": 670}, {"compound": "CC(C)(C)OC(=O)N1CCC(C2CCN(C(=O)OC(C)(C)C)CC2)CC1", "XC50": 1160}, {"compound": "O=C(C=Cc1ccc(Cl)c(Cl)c1)NCCCCCN1CCCC(CCCNS(=O)(=O)c2cccc3cccnc23)C1", "note": "(stereo not drawn)", "XC50": 1000}, {"compound": "O=C(Nc1ccc(-c2ccc(-c3nc4cc(C(F)(F)F)ccc4[nH]3)s2)cc1)c1c[nH]cn1", "XC50": 670}, {"compound": "Cc1ccc(-c2noc(=O)n2CC(=O)Nc2ccccc2-c2ccccc2)cc1", "XC50": 807}, {"compound": "COc1ccc2nccc([C@@H](O)CN3CCC(NCc4cc5ccccc5nc4O)CC3)c2c1", "XC50": 182}, {"compound": "COc1ccccc1C1CCN(C2CCC(NC(=O)/C=C/c3cc(F)c(F)cc3F)CC2)CC1", "note": "(stereo not drawn)", "XC50": 1600}, {"compound": "Cc1ccc(CN2CCCN(Cc3cccc(NC(=O)c4ccc(-c5ccccc5)cc4)c3)CC2)cc1C", "XC50": 1250}, {"compound": "O=C1COc2ccc(CNC3CCC(O)(CCc4ccnc5cc6c(cc45)OCCO6)CC3)nc2N1", "note": "(stereo not drawn)", "XC50": 931}, {"compound": "CC(C)NCC(=O)Nc1cccc(C(=O)Nc2cccc(C(F)(F)F)c2)c1", "XC50": 273}, {"compound": "CC(C)NCc1cccc(-c2ccc(NC(=O)c3ccc(C#N)cc3)cc2)c1", "XC50": 825}, {"compound": "O=C(NCCNc1ccnc(Nc2ccc(F)cc2)n1)Nc1ccc2c(c1)OCO2", "XC50": 682}, {"compound": "N#Cc1ccc2c(c1)CN(C1CCC(NC(=O)/C=C/c3cc(C(F)(F)F)cc(C(F)(F)F)c3)CC1)CCC2", "note": "(stereo not drawn)", "XC50": 1390}]}]}
